This assay has as its system HCT-116. Nature of the assay: Inhibition of PI3K/AKT signalling pathway in human HCT-116 cells assessed as downregulation of AKT phosphorylation at Ser473 residue at 100 nM irradiated with 365 nm UV light for 5 mins and incubated for 24 hrs by Western blot. The assay is classed as cell-based. In general terms: In western blotting, separated proteins are transferred to a membrane and probed.

Active and inactive are the calls of the source. The rule behind the calls is not given here.

On to `COc1cc(CN(c2cc(-c3cc(OC4CCOCC4)c4ncnc(C)c4c3)cnc2OC)S(=O)(=O)c2ccc(F)cc2F)c([N+](=O)[O-])cc1OC`, for which the inhibition result is “Active”.

Values taken from ChEMBL document CHEMBL5042472, “Design, Synthesis, and Biological Evaluation of a Novel Photocaged PI3K Inhibitor toward Precise Cancer Treatment” (J Med Chem, 2021).
